{"source": "patent US20210352950A1", "about": "(priority 2019, published 2021)", "key": {"[1]": {"test_system": "ferrous ion (Fe2+) in HCT116 cells", "experiment": "Intracellular ferrous iron detection (Iron Assay Kit)", "type": "cell-based, human", "conditions": "HCT116, STS 24 hours + vitamin C 350 μM 3 hours, compared to all other conditions", "protocol": "Intracellular ferrous ions were measured using Iron Assay Kit (Cat. #: ab83366). Ferrous ions (Fe^2+), but not ferric ions (Fe^3+) specifically reacts with […] (an iron chromogen) producing a stable colored complex, whose absorbance is measured at 593 nm. For Fe^2+ measurement experiment, cells were seeded in 10 cm petri dish (4×10^5 cells) in CTR medium. After 24 hours cells were rinsed twice in 1×PBS and CTR or STS medium was added. […] Next, cells were lysed in iron assay buffer and intracellular ferrous iron level was measured according to manufacturer protocol. Absorbance was recorded at the wavelength of 593 nm using a microplate reader (Infinite M200 TECAN). Data are expressed as fold change versus control sample."}, "[2]": {"test_system": "HO-1", "experiment": "HO-1 expression in HCT116 (qPCR, western blot)", "type": "cell-based, human", "conditions": "HCT116, CTR, vitamin C 350 μM 3 hours as single intervention", "protocol": "Cells were washed twice in ice-cold PBS and lysates were prepared in RIPA lysis buffer (50 mM Tris HCl pH 7.4, 150 mM NaCl, 1% NP-40, 0.25% deoxycholic acid, 1 mM EDTA) supplemented with protease and phosphatase inhibitors (protease inhibitor cocktail set III EDTA-free, Calbiochem, Cat. #: S39134; PhosStop, Roche), Samples were sonicated (bioruptor plus, diogenode) and centrifuged at 16.1 g for 30 minutes at 4° C. Tumor tissues were collected and snap frozen in liquid nitrogen immediately after mice were sacrificed, and stored in -80° C. until use. […] Protein concentrations were determined by BCA assay (Thermo Fisher Scientific, Cat. #: 23225). Proteins were diluted in 1× Laemmli sample buffer, boiled at 95° C. for 5 minutes and 30 μg of total proteins were separated by using SDS-PAGE and analyzed by western blotting by standard procedures. […] Membranes were incubated overnight at 4° C. with gentle shaking with the following primary antibodies: […] ADI-SPA894), FTH (1:1000, Cell Signaling, Cat. #: 3998), AMPK (1:1000, Cell Signaling, Cat. #: 2532), phospho-[…] […] Bands intensity was quantified with NIH Image J software (version 1.48v). […] Resulting cDNA (1/20 v/v) was analyzed by real-time polymerase reaction (qRT-PCR) using TaqMan MBG probes with FAM reporter dyes. […]"}}}
{"smiles": "O=C1O[C@H]([C@@H](O)CO)C(O)=C1O", "note": "[vitamin C, ascorbic acid]", "values": [{"measurement": "ferrous ion (Fe2+) level", "setting": "[1]", "value": "significantly higher"}, {"measurement": "HO-1 mRNA and protein level", "setting": "[2]", "value": "significantly up-regulated HO-1 both at transcriptional and protein level"}]}
